Measurements reported in patent US9228121B2, “Process for the co-encapsulation of biocidally active compounds in clay minerals functionalized by nitrogen compounds” (Clariant S.A., priority 2010, dated 2016).

Key:
[1] = Tray test for leaching of biocides from paint film; format: physicochemical; conditions: paint with 1000 ppm biocidally active agent, 500 mL distilled water, detection limit 50 ppm
Description: Additionally, the leaching of biocides was evaluated through a tray test in which 50 g of the a paint formulation containing 1000 ppm of biocidally active agent was applied in the bottom of a tray (23.5×38.0 cm) each time and the painting procedure was repeated twice. The film was dried at room temperature for seven days and then 500 mL of distilled water was added to the tray, after 1, 3, 6 and 24 hours a 10 mL sample were taken and analyzed for determination of the biocides.

[2] = system: Algae suspension; test: Algae growth test on leached dry paint film; format: cell-based; conditions: ppm of BKC relatively to the paint, after leaching
Description: Test specimens were prepared by application of two paint coats on watercolor paper ([…]) for each biocidal composition. After application, test specimens were dried during 7 days. After drying, coated substrates were cut in 30 mm squares. The test specimens were evaluated after a leaching test where the coated substrates were leached for 8 and 24 hours in 2 L containers of water with a flow rate such that there are 6 changes of the water in a period of 24 hours. Coated substrates were dried to room temperature for 48 hours and then evaluated in terms of microbiological effectiveness. The algicidal effect on dry film was evaluated as described bellow: Inoculums were prepared with a suspension of algae species (Trentepohlia odorata, Chlorella sp and Scenedesmus quadricauda) at concentration of 10^6 cells/mL. Coated substrates were placed on the center of a pre-poured Bold's Basal Medium agar plates. A thin coat of the algae suspension was applied over the plates. Plates were incubated with humidity ≧85%, 25° C. and cycle of 12 hours light and 12 hours darkness. For each biocidal composition the test was done three times. The algae growth on the sample surface was evaluated weekly for 3 weeks using the following scale: […]

## C12/C14-alkyldimethyl benzyl ammonium chloride [Dodigen ® 2808]
[1]; 1 hour
  Tray test: biocide leached into water: 164 ppm
[1]; 3 hours
  Tray test: biocide leached into water: 177 ppm
[1]; 6 hours
  Tray test: biocide leached into water: 190 ppm
[1]; 24 hours
  Tray test: biocide leached into water: 224 ppm
[2]
  Effective concentration against algae (ppm relatively to the paint): >>2000 ppm of BKC
[2]; listed as neat BKC
  Effective concentration against algae (ppm relatively to the paint): > 2000 ppm
